The values that follow come from patent US6239107A, “Conjugates of lipophilic moieties and fragments of vasoactive intestinal peptide (VIP)” (Yeda Research & Development Co., Ltd., priority 1996, dated 2001).

Data set [1] has as its system rat cerebral cortical cell cultures (neurons) treated with β-amyloid peptide (amino acids 25-35). In words: Neuronal survival assay, protection against β-amyloid toxicity. The format is cell-based. Particulars: 5 days. The protocol:
β-Amyloid peptide is known to be involved in Alzheimer's disease and is a toxic substance to neurons grown in culture (Pike et al., J. of Nezarosci., 13(4), 1676-1687 (1993); Yankner et al., Science, 250:279-282 (1990); Gozes et. al., Proc. Natl. Acad. Sci. USA, 93:[…] (1996)).
Rat cerebral cortical cell cultures were prepared by a slight modification of the techniques described by Forsythe and Westbrook (J. Physiol. Lord. 365:515, (1988)), in which cerebral cortex was used instead of hippocampus and newborn rats were utilized instead of E16 mice. Cerebral cortical cells (1.5-15×10^5 cells/35 mm dish) were plated on confluent cerebral cortical astrocyte feeder cultures as described (Gozes et al., J. Pharmacol Erp. Therap., 257:959-966 (1991)). The culture medium was DMEM-(Dulbeco Modified Eagle Medium) containing 5% horse serum and N3 [media supplement containing a hormone cocktail, according to (Romijn et al., Brain Res., 254:(4),583-589 (1981))]. After eight days growth in vitro, the cultures were given a complete change of medium and then were treated with the β-amyloid peptide (amino acids 25-35) for 5 days.
The β-amyloid peptide fragment was dissolved in water to a finalconcentration of 2.5 mM. […] Neurons were counted without knowledge of type of treatment as before. […]

For data set [2], the system named is male rats (Wistar) injected i.c.v. with the cholinergic blocker AF64A. The note with it: rat, in vivo. The protocol:
In vivo Model for Cholinergic Inhibition. 18 Male rats (Wistar, 250-300 g) were injected intracerebroventricularly (i.c.v.) at a rate of 0.21 μl/min., using plastic tubing (PE-20) attached to 25G needle; controls received an injection of saline 2 μl/side, experimental animals received injections of the cholinergic blocker (ethylcholine aziridium) AF64A (3 nmol/2 μl/side).
Drug treatment was initiated 7-10 days after AF64A injection. Animals were divided into two equal groups. Test group received daily nasal administration of St-Lys-Lys-Tyr-Leu-NH2 (SEQ ID NO:6) dissolved in 10% Sefsol™ and 40% isopropanol at a concentration of 10 μg/40 μl (20 μl administered through each nostril). […]
Rats were placed in a circular pool, 1.26 m in diameter, 0.2 m deep, equipped with a clear plexiglas column, with a 13.3 cm platform reaching just below the surface of the water (22-24° C). […] The latency of reaching the platform was recorded for each rat (in seconds) and the changes over days of training were graphed, which reflect learning and memory.
FIG. 3 depicts the effects of St-Lys-Lys-Tyr-D-Ala-NH2 (indicated KKYO in the figure) on learning and memory in the Alzheimer's in vivo test (AF64A-cholinotoxicity test) as described above. […] Following this test the platform is placed back in the water pool, but this time it is visible to the swimming rat and the time required to reach it is measured. […]

Data set [3] can be described thus: Biodistribution to brain after intranasal application of radioiodinated conjugate. The format is in vivo, rat. Particulars: thirty minutes after application, FIG. 15. The protocol:
St-Lys-Lys-Tyr-Leu-NH2 (SEQ ID NO:6) was radioiodinated by using the chloramine T methods as described in Gozes et al., Endocrinology, 134:2121-2125 (1994) and about 7.8×10^6 cpm/2 μl 5% Sefsol™, 20% isopropanol/rat were applied intranasally to 250-300 g rats. Animals were sacrificed 30 minutes following drug administration and the frontal cortex was removed, weighed and counted for radioactivity in a gamma counter. Radioactive tissue samples (containing 1400 cpm/gram sample) were thereafter homogenized and subjected to centrifugation (5,400 g for 25 min.). Supernatants were then subjected to HPLC analysis against St-Lys-Lys-Tyr-Leu-NH2 (SEQ ID NO:6) as a marker (eluting using an acetonitrile gradient at fraction 25). Samples were monitored for radioactivity in a gamma counter.

Data set [4] relates to Apolipoprotein E-deficient newborn mice. In words: Acquisition of developmental milestones in a model for mental retardation. The format is in vivo. Particulars: ApoE deficient newborn mice, s.c. injection. The protocol: It has recently been discovered that mice deficient in apolipoprotein E (ApoE) (Plump et al., Cell, 71:343-363 (1992)) are retarded in their acquisition of developmental milestones.
8 newborn normal mice were injected (s.c. 1.2 μg 120 μu) with St-Lys-Lys-Tyr-Leu-NH2 or with saline. 8 ApoE deficient newborn mice were treated similarly.

The conditions of data set [5]: same amounts of radiolabeled conjugate; Gozes et al., Endocrinology 134:2121-2125 (1994); cited from earlier work.

Non-standard residues stand in square brackets, D forms with d. Residues, ends and D or L forms follow the SMILES beside them. *: point of attachment. Stearoyl = CCCCCCCCCCCCCCCCCC(=O)*; Lauroyl = CCCCCCCCCCCC(=O)*

In the case of `CCCCCCCCCCCC(=O)N[C@@H](CCCCN)C(=O)N[C@@H](CCCCN)C(=O)N[C@@H](Cc1ccc(O)cc1)C(=O)N[C@@H](CC(C)C)C(N)=O` [Lau-Lys-Lys-Tyr-Leu-NH2] (Lauroyl-KKYL-NH2), in data set [1] (added together with 25 μM β-amyloid peptide (25-35), NSE-stained neuron counts), the “Active concentration (M)” value is given as 10^-11 -10^-10 M. Moreover, the “Neuronal survival (%)” value in data set [1] (at the active concentration, with 25 μM β-amyloid peptide (25-35), as compared to control) is on record as 83-84%.
Consider `CCCCCCCCCCCCCCCCCC(=O)N[C@@H](CCCCN)C(=O)N[C@@H](CCCCN)C(=O)N[C@@H](Cc1ccc(O)cc1)C(=O)N[C@H](C)C(N)=O` [St-Lys-Lys-Tyr-D-Ala-NH2] (Stearoyl-KKY[dA]-NH2), for which the “time required to reach the visible platform (possible motor deficits)” value in data set [2] was “no differences between the groups”.
With `CCCCCCCCCCCCCCCCCC(=O)N[C@@H](CCCCN)C(=O)N[C@@H](CCCCN)C(=O)N[C@@H](Cc1ccc(O)cc1)C(=O)N[C@@H](CC(C)C)C(N)=O` [St-Lys-Lys-Tyr-Leu-NH2] (Stearoyl-KKYL-NH2), the “intact conjugate in brain extract by HPLC” value in data set [3] is on record as “could be observed in the brain”.
For St-Nle^17 -VIP-NH2, the “forelimb placing behavior acquisition” value in data set [4] (versus untreated ApoE deficient mice, FIGS. 10 and 11) is on record as “improved their placing acquisition essentially to the level of control”. In addition, the cliff avoidance acquisition result in data set [4] (FIGS. 12 and 13) is listed as “even better cliff avoidance acquisition than normal controls or similar cliff avoidance behavior to control”. Besides, the “radioactivity obtained in the intestine” value in data set [5] was 3700 cpm/g.
